Laboratory results reported in article PMC10463274 (2023).

What was measured:
[1] = test system: vancomycin aptamer (DNA, aptamer) CGAGGGTACCGCAATAGTACTTATTGTTCGCCTATTGTGGGTCGG; test: FFT-EIS electrochemical aptamer-based sensor (ket titration); settings: whole bovine blood, 37 °C; apparent; error is 95% confidence interval; Hill–Langmuir fit
[2] = test system: phenylalanine aptamer (DNA, aptamer) CGACCGCGTTTCCCAAGAAAGCAAGTATTGGTTGGTCG; test: FFT-EIS electrochemical aptamer-based sensor; settings: in vitro calibration; details only in supporting information

Structure (SMILES) | KD [1] | binding [2]
CN[C@H](CC(C)C)C(=O)N[C@H]1C(=O)N[C@@H](CC(N)=O)C(=O)N[C@H]2C(=O)N[C@H]3C(=O)N[C@H](C(=O)N[C@H](C(=O)O)c4cc(O)cc(O)c4-c4cc3ccc4O)[C@H](O)c3ccc(c(Cl)c3)Oc3cc2cc(c3O[C@@H]2O[C@H](CO)[C@@H](O)[C@H](O)[C@H]2O[C@H]2C[C@](C)(N)[C@H](O)[C@H](C)O2)Oc2ccc(cc2Cl)[C@H]1O | 144 ± 31 µM | –
N[C@@H](Cc1ccccc1)C(=O)O | – | yes
